# Like-named read-outs stand apart in the source and are kept apart here.
# Columns and labels:
# α1L adrenoceptor = molecular target: T1, α1L adrenoceptor (Oryctolagus cuniculus, UniProt O02824); assay: Functional antagonism of noradrenaline-induced contractions of rabbit aorta pretreated with chloroethylclonidine; assay type: biochemical
# T1 sequence (O02824 1-466): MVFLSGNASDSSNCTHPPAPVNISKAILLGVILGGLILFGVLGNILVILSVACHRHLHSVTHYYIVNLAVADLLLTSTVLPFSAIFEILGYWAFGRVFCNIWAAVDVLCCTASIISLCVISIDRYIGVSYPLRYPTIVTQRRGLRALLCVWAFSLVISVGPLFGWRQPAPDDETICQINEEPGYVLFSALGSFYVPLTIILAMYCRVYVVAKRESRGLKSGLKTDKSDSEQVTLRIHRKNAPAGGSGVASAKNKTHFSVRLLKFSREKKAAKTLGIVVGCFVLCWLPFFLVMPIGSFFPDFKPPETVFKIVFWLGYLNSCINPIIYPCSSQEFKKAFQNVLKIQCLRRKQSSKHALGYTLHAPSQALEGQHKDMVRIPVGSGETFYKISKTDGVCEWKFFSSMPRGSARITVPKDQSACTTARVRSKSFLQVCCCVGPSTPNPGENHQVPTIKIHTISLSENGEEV
# Method: Adult male New Zealand rabbits were sacrificed by cervical dislocation. The aorta was removed, placed in Krebs-Henseleit buffer and dissected free of adhering tissue. […] Desmethylimipramine (0.1 μM) and corticosterone (1 μM) to block neuronal and extraneuronal uptake of NA, (±)-propranol (1 μM) to block β adrenoceptors and yohimbine (0.1 μM) to block α2 adrenoceptors were added to the buffer.
# Each antagonist concentration was tested using 2-3 aortic rings from different rabbits.
# The logarithm of these dose ratio −1 was plotted against the logarithm of the compound concentrations (Schild plot) to evaluate the affinity constant Kb.
# [1] = system: recombinant α1a-adrenoceptor; conditions: literature statement (Leonardi et al. 1997); cited from earlier work
# [2] = system: prostatic urethral pressure (noradrenaline-induced); conditions: cited from earlier work
# [3] = system: prostatic urethral pressure (hypogastric-nerve stimulation); conditions: anaesthetised dogs, i.v.; data from Leonardi et al. 1997; cited from earlier work
# diastolic blood pressure = conditions: cited from earlier work; for DBP ED25: dose inducing a 25% decrease in diastolic blood pressure: anaesthetised dogs, i.v., data from Leonardi et al. 1997
# [4] = dog model, literature (Leonardi et al. 1997)
smiles,measurement,setting,value
COc1ccccc1N1CCN(CCCNC(=O)c2cccc3c(=O)c(C)c(-c4ccccc4)oc23)CC1 [Compound A],"Functional affinity for the α1L adrenoceptor subtype, pKb",α1L adrenoceptor,8.91
same,affinity for the α1A adrenoceptor,[1],good affinity
same,UP ID50 NA: dose inhibiting by 50% the urethral contractions induced by noradrenaline,"[2]; anaesthetised dogs, i.v., data from Leonardi et al. 1997",0.0024 mg/kg
same,inhibition of contractility of the prostatic urethra,[2]; [4],selectively inhibit contractility of the prostatic urethra
same,UP ID50 HYP: dose inhibiting by 50% the urethral contractions induced by hypogastric-nerve stimulation,[3],0.0067 mg/kg
same,DBP ED25: dose inducing a 25% decrease in diastolic blood pressure,"diastolic blood pressure; first of two DBP values (the one that gives R1, NA)",0.243 mg/kg
same,DBP ED25: dose inducing a 25% decrease in diastolic blood pressure,"diastolic blood pressure; second of two DBP values (the one that gives R2, HYP)",0.177 mg/kg
same,effects on blood pressure,diastolic blood pressure; [4],without substantial effects on blood pressure
